Results from US20140235578A1, “METHODS FOR TREATING NEOPLASIA AND FOR IDENTIFYING COMPOSITIONS USEFUL IN SUCH THERAPY” (priority 2007, published 2014).

Assays:
[1] = biological target: purified recombinant human Top2β (Homo sapiens, UniProt Q02880); assay: In vitro DNA cleavage assay (Bodley et al.), Top2β; assay type: biochemical; conditions: for Poisoning activity against Top2β: DNA cleavage, purified recombinant human Top2β; for activity against Top2β: as stated in Table 2; as to Poisoning activity against Top2β: key: each + represent roughly 10-fold in activity; −: non-detectable
Chain of purified recombinant human Top2β (Q02880 whole entry): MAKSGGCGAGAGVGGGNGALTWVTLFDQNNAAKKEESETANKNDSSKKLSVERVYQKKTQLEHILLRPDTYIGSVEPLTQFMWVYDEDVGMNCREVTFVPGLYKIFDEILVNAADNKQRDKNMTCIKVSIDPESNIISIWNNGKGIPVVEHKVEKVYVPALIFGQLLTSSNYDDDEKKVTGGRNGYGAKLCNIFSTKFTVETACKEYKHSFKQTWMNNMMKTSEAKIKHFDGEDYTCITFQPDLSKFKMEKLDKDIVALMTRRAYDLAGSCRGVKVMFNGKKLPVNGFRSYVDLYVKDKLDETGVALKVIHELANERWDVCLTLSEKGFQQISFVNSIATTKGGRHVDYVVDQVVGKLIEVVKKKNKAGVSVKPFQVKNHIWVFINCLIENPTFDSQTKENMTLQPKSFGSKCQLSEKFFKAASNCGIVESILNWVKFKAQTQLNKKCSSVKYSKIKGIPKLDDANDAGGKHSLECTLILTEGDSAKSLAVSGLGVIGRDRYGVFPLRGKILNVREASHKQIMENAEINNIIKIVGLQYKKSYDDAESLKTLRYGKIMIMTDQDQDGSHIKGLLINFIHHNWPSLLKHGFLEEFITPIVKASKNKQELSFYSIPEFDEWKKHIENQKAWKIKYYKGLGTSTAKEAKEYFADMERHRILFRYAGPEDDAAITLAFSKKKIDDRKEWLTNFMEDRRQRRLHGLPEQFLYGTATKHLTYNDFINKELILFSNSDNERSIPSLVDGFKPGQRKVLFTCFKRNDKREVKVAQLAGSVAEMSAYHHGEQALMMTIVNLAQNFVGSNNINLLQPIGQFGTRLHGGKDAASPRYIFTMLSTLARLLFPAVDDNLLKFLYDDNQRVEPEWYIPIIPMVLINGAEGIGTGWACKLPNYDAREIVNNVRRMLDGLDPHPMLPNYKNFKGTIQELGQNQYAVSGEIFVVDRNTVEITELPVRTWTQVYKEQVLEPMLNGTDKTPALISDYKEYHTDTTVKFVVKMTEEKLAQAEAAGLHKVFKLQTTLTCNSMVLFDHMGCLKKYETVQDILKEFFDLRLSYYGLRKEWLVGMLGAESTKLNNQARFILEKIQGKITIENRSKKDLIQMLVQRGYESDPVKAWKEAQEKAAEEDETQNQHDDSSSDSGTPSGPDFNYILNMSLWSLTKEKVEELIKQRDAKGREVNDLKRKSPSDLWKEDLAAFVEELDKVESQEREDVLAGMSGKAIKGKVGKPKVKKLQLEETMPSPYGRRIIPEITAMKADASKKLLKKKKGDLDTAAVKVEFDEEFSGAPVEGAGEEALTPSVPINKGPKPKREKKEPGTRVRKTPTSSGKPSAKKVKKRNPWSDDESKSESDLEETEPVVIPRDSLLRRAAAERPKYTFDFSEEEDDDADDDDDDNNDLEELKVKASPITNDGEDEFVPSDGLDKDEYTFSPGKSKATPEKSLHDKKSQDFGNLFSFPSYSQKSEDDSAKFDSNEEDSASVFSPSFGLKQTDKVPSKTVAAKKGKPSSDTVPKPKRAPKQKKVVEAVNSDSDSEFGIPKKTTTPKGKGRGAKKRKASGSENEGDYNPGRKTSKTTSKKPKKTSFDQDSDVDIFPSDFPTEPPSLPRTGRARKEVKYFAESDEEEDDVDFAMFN
Experimental: (§1) Various β-carboline derivatives of compounds of Formula I above were evaluated for their antineoplastic activities and for their ability to preferentially poison Top2 isozymes. These compounds (i.e. those in Table 1 below) were also evaluated for Top2 isozyme-specific poisoning using the in vitro DNA cleavage assay described by Bodley et al. In the studies, purified recombinant human Top2 isozymes were used.
(§2) Reactions were terminated with SDS (final 1%) and digested with proteinase K (100 μg/ml at 50° C. for 1 hr). After adding gel loading solution, the reaction mixtures were analyzed by agarose gel electrophoresis. Gel was dried and exposed to x-ray films for visualization.
(§3) In certain preferred embodiments, the methods for identifying Top2α preferential poisons include using in vitro DNA cleavage assays. In the in vitro DNA cleavage assay, compounds as potential Top2 poisons are tested for their isozyme specificities through this assay using purified recombinant human Top2α (“hTop2α”) and human Top2β (“h Top2β”) isozymes. In this assay, the ability of various Top2 poisons to induce Top2 isozyme-mediated DNA cleavage of ^32P end-labeled linearized plasmid DNA was assessed. Thus, the relative specificity of various Top2 poisons against Top2 isozymes can be qualitatively determined based on the depletion of band intensities and/or the intensities of bands representing the cleavage products.

[2] = biological target: purified recombinant human Top2α (Homo sapiens, UniProt P11388); assay: In vitro DNA cleavage assay (Bodley et al.), Top2α; assay type: biochemical; conditions: as stated in Table 2
Chain of purified recombinant human Top2α (P11388 whole entry): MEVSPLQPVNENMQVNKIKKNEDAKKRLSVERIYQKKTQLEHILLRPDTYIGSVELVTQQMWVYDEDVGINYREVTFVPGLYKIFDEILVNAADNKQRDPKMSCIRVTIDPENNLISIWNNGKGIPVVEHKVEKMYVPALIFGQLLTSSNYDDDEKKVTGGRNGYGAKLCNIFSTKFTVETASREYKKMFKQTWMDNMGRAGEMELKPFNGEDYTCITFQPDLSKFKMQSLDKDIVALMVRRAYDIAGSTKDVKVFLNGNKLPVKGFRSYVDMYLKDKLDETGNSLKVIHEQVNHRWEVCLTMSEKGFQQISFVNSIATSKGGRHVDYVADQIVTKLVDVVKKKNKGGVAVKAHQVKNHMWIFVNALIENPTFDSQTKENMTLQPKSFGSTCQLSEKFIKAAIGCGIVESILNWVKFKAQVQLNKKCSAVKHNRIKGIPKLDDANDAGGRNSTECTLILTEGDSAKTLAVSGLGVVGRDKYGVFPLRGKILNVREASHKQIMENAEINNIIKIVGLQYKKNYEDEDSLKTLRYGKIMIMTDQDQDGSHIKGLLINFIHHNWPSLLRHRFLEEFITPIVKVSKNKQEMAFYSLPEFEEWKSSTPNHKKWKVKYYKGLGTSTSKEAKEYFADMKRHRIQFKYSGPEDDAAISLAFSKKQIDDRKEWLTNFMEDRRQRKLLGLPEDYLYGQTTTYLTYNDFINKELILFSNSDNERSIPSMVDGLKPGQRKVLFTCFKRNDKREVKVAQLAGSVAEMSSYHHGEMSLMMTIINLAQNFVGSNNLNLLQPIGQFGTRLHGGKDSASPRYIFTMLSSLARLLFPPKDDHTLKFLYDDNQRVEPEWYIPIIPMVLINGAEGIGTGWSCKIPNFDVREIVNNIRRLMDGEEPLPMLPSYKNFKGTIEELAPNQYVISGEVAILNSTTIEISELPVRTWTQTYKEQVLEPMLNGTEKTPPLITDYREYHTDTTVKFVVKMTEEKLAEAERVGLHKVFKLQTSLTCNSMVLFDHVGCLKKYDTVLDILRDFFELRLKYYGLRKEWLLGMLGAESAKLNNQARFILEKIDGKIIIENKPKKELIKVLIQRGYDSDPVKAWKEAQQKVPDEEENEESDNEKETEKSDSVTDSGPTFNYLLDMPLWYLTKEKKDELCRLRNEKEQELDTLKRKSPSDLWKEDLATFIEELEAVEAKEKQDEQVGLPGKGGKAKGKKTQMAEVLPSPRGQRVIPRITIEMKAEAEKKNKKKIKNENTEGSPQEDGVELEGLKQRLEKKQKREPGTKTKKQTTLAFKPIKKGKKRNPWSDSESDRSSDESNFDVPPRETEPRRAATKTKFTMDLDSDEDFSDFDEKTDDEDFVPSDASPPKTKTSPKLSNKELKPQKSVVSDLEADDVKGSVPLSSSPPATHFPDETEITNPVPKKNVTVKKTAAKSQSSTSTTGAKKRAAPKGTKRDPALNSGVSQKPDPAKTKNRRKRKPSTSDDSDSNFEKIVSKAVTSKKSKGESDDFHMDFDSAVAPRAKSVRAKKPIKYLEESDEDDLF
Experimental: as §1, §2, §3

A549 lung carcinoma = assay: Cytotoxicity IC50 against A549 lung carcinoma; assay type: cell-based
[3] = tested on: melanomas in the skin of DMBA-initiated TOP2β+ and skin-specific top2β knockout mice; assay: Carcinogenesis assay using a mouse skin model; assay type: in vivo
Text: Skin-specific top2β knockout mice and their TOP2β^+ controls were derived from the top2β^+/flox2 and top2β^flox2/flox2 lines previously reported. The top2β^flox2 allele contains two loxP sites flanking three Top2β exons that encode a region of TopIIβ containing the active-site tyrosyl residue; this allele expresses wild-type TopIIβ, but is converted to a null allele top2β^Δ2 upon exposure to Cre recombinase. Skin-specific deletion within the floxed top2β allele is achieved by crossing the top2β^flox2 lines with mice expressing Cre recombinase from the keratin 14 promoter (kindly provided by Andrew P. McMahon, Harvard University). The K14-Cre transgenic mouse line expresses Cre in the keratinocytes of the epidermis and the hair follicles during prenatal and postnatal development. Mice with the genotype K14-Cre top2β^flox2/flox2, K14-Cre top2β^+/flox2, top2β^flox2/flox2 and top2β^+/flox2 were generated and used in this study; with the exception of K14-Cre top2β^flox2/flox2 mice, which lack TopIIβ in skin cells, all the others are phenotypically Top2β^+ in all tissues.
Seven-week old skin-specific top2β knockout mice and their TOP2β^+ controls were used in the study. The back of each mouse was shaved two days prior to treatment. The tumor initiator DMBA (1 μmol in 100 μl of DMSO) was applied once in the first week, followed by various treatments (two applications per week) for six groups of animals: Group 1, DMSO (100 μl), 5 applications; Group 2, VP-16 (10 μmol in 100 μl DMSO), 5 applications; Group 3, VP-16 (20 μmol in 200 μl of DMSO), 3 applications; Group 4, the tumor promoter TPA (phorbol 12-tetradecanoate 13-acetate, 17 nmol in 100 μl DMSO), 8 applications; Group 5, VP-16 (5 μmol in 100 μl DMSO), 5 application; Group 6, VP-16 (5 μmol in 100 μl DMSO), 10 applications. Mice were examined every week for appearance of melanomas on their skins. The number of melanomas visibly notable was scored at the end of the 16th week. The average numbers of tumors induced in different treatment groups were compared using Student's t-test.

H9C2 cardiomyocytes [4] = assay: γ-H2AX DNA damage signal by Western blotting; assay type: cell-based; conditions: for effect on doxorubicin-induced γ-H2AX: ROS scavenger 100 μg/ml, added 30 min prior to doxorubicin
Experimental: Cell lysates were analyzed by Western blotting using anti-γ-H2AX or anti-α-tubulin antibody (for assessing protein loading). […] Cells were then lysed and analyzed by Western blotting using anti-γ-H2AX or anti-α-tubulin antibody. […] Cells were then lysed and analyzed by Western blotting using anti-γ-H2AX or anti-α-tubulin antibody.
(§4) Vitamin C and NAC were added 30 min prior to doxorubicin. Cell lysates were then analyzed by Western blotting using anti-γ-H2AX or anti-α-tubulin antibody. […] Cell lysates were then analyzed by Western blotting (upper panel) using anti-γ-H2AX or anti-α-tubulin antibody. Quantification of γ-H2AX signals is shown in the lower panel. C, H9C2 cells were treated with 0.1% DMSO (labeled DMSO), bortezomib (1 μM) or MG132 (4 μM) for 30 min, followed by co-treatment with either 0.1% DMSO (labeled control) or 0.5 μM doxorubicin (labeled Doxo) for 1.5 hrs. Neutral comet assay was then performed as described in Materials and Methods. The average comet tail moments were plotted as histograms (mean±SEM). *p-value<0.001, t-test.

[5] = tested on: control-shRNA-PC12 and Top2β-shRNA-PC12 cells; assay: 4-day MTT assay in PC12 knockdown cells; assay type: cell-based, rat
Experimental: (§5) Primary MEFs were isolated from E13.5 Top2β^+/+, Top2β^+/Δ2 and Top2β^Δ2/Δ2 mouse embryos, as described (the Top2β^Δ2 allele contains a deletion in the coding region of the active-site tyrosyl residue). SV40-transformed MEFs were obtained by transformation with pAN2 DNA as described. Cells were maintained in DMEM supplemented with 10% FetalPlex animal serum complex (Gemini Bio-Products), L-glutamine (2 mM), penicillin (100 units/ml), and streptomycin (100 μg/ml) in a 37° C. incubator with 5% CO2. PC12 cells were first clonally selected and then used to generate Top2β-shRNA and control-shRNA knockdown cells. A rat Top2β-shRNA sequence (5′-[…]-3′) was generated based on the 643-bp partial rat TopIki cDNA sequence (GenBank™ accession number D14046). Duplex (5′-[…]-3′) DNA was made and cloned into the LentiLox 3.7 vector (obtained from Dr. van Parijs, MIT). The control-shRNA sequence (5′-[…]-3′) was created by altering three nucleotides in the rat Top2β-shRNA sequence (underlined). The duplex (5′-[…]-3′) DNA was cloned into the LentiLox 3.7 vector. […]
(§6) Top2β contributes minimally to VP-16 cytotoxicity in transformed cells. […] To test if Top2β is also important for VP-16 cytotoxicity, we determined the IC50 of VP-16 in two pairs of transformed Top2β knockout/knockdown cells using 4-day MTT assay (in triplicates). […]

[6] = tested on: Top2β+/− and Top2β−/− MEFs; assay: 4-day MTT assay in transformed MEFs; assay type: cell-based, mouse; conditions: triplicates
Experimental: as §5, §6

Top2β = Top2β protein level by Western blotting in H9C2 cells; assay type: cell-based; conditions: 1 μM co-treatment
Experimental: (§7) The amount of Top2 cleavage complexes was measured by a band depletion assay as described in Materials and Methods. Cells were lysed either immediately or after reversal of the Top2 cleavage complexes (labeled R+250). Cell lysates were analyzed by Western blotting using anti-Top2α/Top2β or anti-α-tubulin antibody. […] Cells were then lysed and protein levels of Top2α, and Top2β isozymes were determined by Western blotting. […] Cell lysates were immunoblotted using anti-Top2β antibody. D, H9C2 cells were treated with ICRF187 (100 μM) for 4 hrs, followed by treatment with doxorubicin (Doxo, 0, 0.5 and 1 μM) for 1.5 hrs. Neutral comet assay was then performed as described in Materials and Methods. The average comet tail moments were plotted as histograms (mean±SEM). * p-value<0.001, t-test.

H9C2 cardiomyocytes [7] = assay type: cell-based; conditions: bortezomib 1 μM or MG132 4 μM co-treatment, 0.5 μM doxorubicin, p<0.001
Experimental: as §4
as §7, with “Neutral comet assay was then performed as described in Materials and Methods. The average comet tail moments were plotted as histograms (mean±SEM). * p-value<0.001, t-test.” left out

## 1,2-dibenzyl-9-fluorobenzyl-9H-pyrido[3,4-b]indol-2-ium [compound 9]
[1]
  Poisoning activity against Top2β: −
  activity against Top2β: non-detectable
[2]
  activity against Top2α: roughly 20 fold
A549 lung carcinoma
  IC50: 4200 nM

## CCCCCCCCCCCCCC(=O)O[C@@H]1[C@@H](C)[C@@]2(O)[C@@H](C=C(CO)C[C@]3(O)C(=O)C(C)=C[C@@H]23)[C@@H]2C(C)(C)[C@]12OC(C)=O [TPA, phorbol 12-tetradecanoate 13-acetate]
[3]; Group 4, TPA treatment
  ratio of average number of melanomas per mouse, Top2β+ versus Top2β− mice: 1.3
[3]; TOP2β+ mice, Group 4, 17 nmol × 8 applications
  increase in the average number of melanomas per mouse versus DMSO: 130%
[3]; TOP2β− mice, Group 4, 17 nmol × 8 applications
  increase in skin melanoma versus DMSO: 150%

## 9-butyl-1-chlorobenzyl-2-(3-phenylpropyl)-9H-pyrido[3,4-b]indol-2-ium [compound 10]
[1]
  Poisoning activity against Top2β: +
  activity against Top2β: 10 fold
[2]
  activity against Top2α: roughly 20 fold
A549 lung carcinoma
  IC50: < 1700 nM

## CCCCOc1ccc2c3cc[n+](Cc4ccccc4)c(C)c3n(CC(C)C)c2c1 [compound 3, 2-benzyl-7-butoxy-9-isobutyl-1-methyl-9H-pyrido[3,4-b]indol-2-ium]
[1]
  Poisoning activity against Top2β: −
  activity against Top2β: non-detectable
[2]
  activity against Top2α: roughly 20 fold
A549 lung carcinoma
  IC50: 4600 nM

## ICRF-193
H9C2 cardiomyocytes [4]
  effect on doxorubicin (0.5 μM)- and VP-16 (10 μM)-induced γ-H2AX: abolished

## COc1cc([C@@H]2c3cc4c(cc3[C@@H](O[C@@H]3O[C@@H]5CO[C@@H](C)O[C@H]5[C@H](O)[C@H]3O)[C@H]3COC(=O)[C@H]23)OCO4)cc(OC)c1O [VP16, etoposide]
[5]; Top2β-shRNA-PC12 cells
  IC50: 1600 ± 100 nM
[5]; control-shRNA-PC12 cells
  IC50: 1900 ± 100 nM
[6]; Top2β+/− MEFs
  IC50: 38 ± 7 nM
[6]; Top2β−/− MEFs
  IC50: 40 ± 6 nM
[3]; mouse, in vivo
  more melanomas in TOP2β+ mice than in skin-specific Top2β knockout mice: 2-13 fold

## O=C1O[C@H]([C@@H](O)CO)C(O)=C1O [vitamin C]
H9C2 cardiomyocytes [4]
  effect on doxorubicin-induced γ-H2AX: unaffected

## CC(C)C[C@H](NC(=O)[C@H](Cc1ccccc1)NC(=O)c1cnccn1)B(O)O [bortezomib]
Top2β
  effect on dexrazoxane-induced degradation of Top2β: abolished
H9C2 cardiomyocytes [7]
  effect on doxorubicin-induced comet tail moment: significantly reduced

## Cc1c2c(cc[n+]1Cc1ccccc1)c1ccc(OCC(C)C)cc1n2CC(C)C [compound 4, 2-benzyl-7-isobutoxy-9-isobutyl-1-methyl-9H-pyrido[3,4-b]indol-2-ium]
[1]
  Poisoning activity against Top2β: −
  activity against Top2β: non-detectable
[2]
  activity against Top2α: roughly 20 fold
A549 lung carcinoma
  IC50: 5300 nM

## 2,9-dibenzyl-1-chlorophenyl-9H-pyrido[3,4-b]indol-2-ium [compound 8]
[1]
  Poisoning activity against Top2β: −
  activity against Top2β: non-detectable
[2]
  activity against Top2α: roughly 20 fold
A549 lung carcinoma
  IC50: 6100 nM

## CC(=O)N[C@@H](CS)C(=O)O [N-Acetyl Cysteine]
H9C2 cardiomyocytes [4]
  effect on doxorubicin-induced γ-H2AX: unaffected

## COc1cccc2c1C(=O)c1c(O)c3c(c(O)c1C2=O)C[C@@](O)(C(=O)CO)C[C@@H]3O[C@H]1C[C@H](N)[C@H](O)[C@H](C)O1 [Doxorubicin, doxorubicin]
H9C2 cardiomyocytes [4]; 0.1-10 μM, 1 hr
  induction of γ-H2AX: concentration-dependent up to 1 μM
